Active and inactive are the calls of the source. No cut-off for these calls is given here.
What was measured:
[1] = biological target: Ephrin type-A receptor 6 (Homo sapiens) (UniProt Q9UF33); test: Inhibition of EPHA6 (unknown origin) at 1 uM
[2] = biological target: Angiopoietin-1 receptor (Homo sapiens) (UniProt Q02763); test: Inhibition of TIE2 (unknown origin) at 1 uM
[3] = biological target: CDK9/Cyclin K (Homo sapiens) (UniProt P50750+O75909); test: Inhibition of CDK9/cyclin-K (unknown origin) at 1 uM; assay type: protein-complex assay
[4] = biological target: Voltage-gated inwardly rectifying potassium channel KCNH2 (Homo sapiens, UniProt Q12809); test: Inhibition of human ERG
[5] = biological target: cAMP-dependent protein kinase catalytic subunit beta (Homo sapiens) (UniProt P22694); test: Inhibition of PKAcb (unknown origin) at 1 uM
[6] = Protein binding in ICR mouse plasma by equilibrium dialysis; assay type: ADME, cell-free; details: read-out: PPB (converted)
[7] = biological target: Testis-specific serine/threonine-protein kinase 3 (Homo sapiens) (UniProt Q96PN8); test: Inhibition of TSSK3 (unknown origin) at 1 uM
Testis-specific serine/threonine-protein kinase 3 (Homo sapiens), sequence (Q96PN8 whole entry): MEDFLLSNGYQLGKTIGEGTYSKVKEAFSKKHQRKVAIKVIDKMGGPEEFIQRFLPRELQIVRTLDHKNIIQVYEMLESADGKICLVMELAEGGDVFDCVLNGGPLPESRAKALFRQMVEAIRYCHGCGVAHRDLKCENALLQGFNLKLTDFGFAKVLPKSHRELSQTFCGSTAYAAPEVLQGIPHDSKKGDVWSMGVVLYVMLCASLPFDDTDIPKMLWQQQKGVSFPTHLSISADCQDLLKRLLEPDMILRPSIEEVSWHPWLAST

[8] = biological target: Serine/threonine-protein kinase PAK 4 (Homo sapiens) (UniProt O96013); test: Inhibition of PAK4 (unknown origin) at 1 uM
[9] = biological target: Serine/threonine-protein kinase ULK2 (Homo sapiens) (UniProt Q8IYT8); test: Inhibition of ULK2 (unknown origin) at 1 uM
[10] = biological target: Myosin light chain kinase (Homo sapiens) (UniProt Q32MK0); test: Inhibition of MYLK3 (unknown origin) at 1 uM
[11] = biological target: SNF-related serine/threonine-protein kinase (Homo sapiens) (UniProt Q9NRH2); test: Inhibition of SNRK (unknown origin) at 1 uM
[12] = biological target: Beta-adrenergic receptor kinase 1 (Homo sapiens) (UniProt P25098); test: Inhibition of GRK2 (unknown origin) at 1 uM
[13] = biological target: Casein kinase I isoform epsilon (Homo sapiens) (UniProt P49674); test: Inhibition of CK1E (unknown origin) at 1 uM
[14] = Clearance in Sprague-Dawley rat at 5 mg/kg, iv; assay type: ADME, organism-based; details: in vivo
[15] = biological target: Dual specificity tyrosine-phosphorylation-regulated kinase 4 (Homo sapiens) (UniProt Q9NR20); test: Inhibition of DYRK4 (unknown origin) at 1 uM
Dual specificity tyrosine-phosphorylation-regulated kinase 4 (Homo sapiens), sequence (Q9NR20 whole entry): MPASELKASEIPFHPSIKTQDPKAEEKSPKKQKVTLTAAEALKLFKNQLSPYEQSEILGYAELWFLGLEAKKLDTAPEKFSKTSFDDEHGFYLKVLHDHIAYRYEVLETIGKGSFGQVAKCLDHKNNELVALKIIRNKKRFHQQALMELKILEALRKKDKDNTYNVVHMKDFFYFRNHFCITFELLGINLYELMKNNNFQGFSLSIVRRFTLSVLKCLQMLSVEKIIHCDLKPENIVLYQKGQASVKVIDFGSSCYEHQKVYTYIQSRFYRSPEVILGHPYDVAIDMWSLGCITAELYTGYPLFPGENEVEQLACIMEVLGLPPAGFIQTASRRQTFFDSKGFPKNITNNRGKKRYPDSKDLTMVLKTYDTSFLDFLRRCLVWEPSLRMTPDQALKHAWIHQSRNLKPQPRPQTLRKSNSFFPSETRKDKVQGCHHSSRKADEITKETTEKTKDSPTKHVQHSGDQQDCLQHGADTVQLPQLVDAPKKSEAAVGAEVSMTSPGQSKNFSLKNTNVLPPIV

[16] = Apparent permeability across basolateral to apical side in human Caco-2 cells assessed as drug recovery; assay type: ADME, cell-based; details: read-out: Drug recovery
HCT-116 [17] = test: Antitumor immunity in BALB/c mouse xenografted with human HCT-116 cells assessed as induction of apoptosis of CD4+ T-lymphocytes in tumor-draining lymph nodes by propidium iodide staining based flow cytometry analysis (reference value: 21.9 %); assay type: functional
[18] = biological target: Tyrosine-protein kinase Fer (Homo sapiens) (UniProt P16591); test: Inhibition of FER (unknown origin) at 1 uM
Tyrosine-protein kinase Fer (Homo sapiens), sequence (P16591 whole entry, looked up): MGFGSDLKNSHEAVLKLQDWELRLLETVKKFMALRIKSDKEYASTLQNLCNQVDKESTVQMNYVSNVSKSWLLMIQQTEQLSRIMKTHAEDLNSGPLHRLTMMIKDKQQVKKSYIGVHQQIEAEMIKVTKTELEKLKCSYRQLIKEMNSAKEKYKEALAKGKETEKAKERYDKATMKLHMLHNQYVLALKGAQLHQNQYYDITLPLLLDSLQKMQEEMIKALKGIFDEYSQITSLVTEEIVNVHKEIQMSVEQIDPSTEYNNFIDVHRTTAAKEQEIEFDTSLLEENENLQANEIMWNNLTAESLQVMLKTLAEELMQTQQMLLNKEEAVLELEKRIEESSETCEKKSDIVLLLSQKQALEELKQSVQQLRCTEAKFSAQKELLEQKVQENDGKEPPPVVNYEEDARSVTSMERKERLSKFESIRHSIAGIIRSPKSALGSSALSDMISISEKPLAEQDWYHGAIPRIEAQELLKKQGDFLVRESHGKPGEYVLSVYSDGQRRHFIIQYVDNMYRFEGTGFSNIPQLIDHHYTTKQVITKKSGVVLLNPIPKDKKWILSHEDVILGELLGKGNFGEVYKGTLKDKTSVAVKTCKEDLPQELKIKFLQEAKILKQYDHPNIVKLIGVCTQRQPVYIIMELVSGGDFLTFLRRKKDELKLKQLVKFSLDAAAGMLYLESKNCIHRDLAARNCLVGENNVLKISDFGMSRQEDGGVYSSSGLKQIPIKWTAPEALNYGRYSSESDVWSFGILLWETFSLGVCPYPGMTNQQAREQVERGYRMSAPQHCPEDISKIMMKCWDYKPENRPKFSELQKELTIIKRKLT

[19] = biological target: Serine/threonine-protein kinase A-Raf (Homo sapiens) (UniProt P10398); test: Inhibition of ARAF (unknown origin) at 1 uM
[20] = biological target: Serine/threonine-protein kinase MRCK beta (Homo sapiens) (UniProt Q9Y5S2); test: Inhibition of MRCKbeta (unknown origin) at 1 uM
Serine/threonine-protein kinase MRCK beta (Homo sapiens), sequence (Q9Y5S2 whole entry): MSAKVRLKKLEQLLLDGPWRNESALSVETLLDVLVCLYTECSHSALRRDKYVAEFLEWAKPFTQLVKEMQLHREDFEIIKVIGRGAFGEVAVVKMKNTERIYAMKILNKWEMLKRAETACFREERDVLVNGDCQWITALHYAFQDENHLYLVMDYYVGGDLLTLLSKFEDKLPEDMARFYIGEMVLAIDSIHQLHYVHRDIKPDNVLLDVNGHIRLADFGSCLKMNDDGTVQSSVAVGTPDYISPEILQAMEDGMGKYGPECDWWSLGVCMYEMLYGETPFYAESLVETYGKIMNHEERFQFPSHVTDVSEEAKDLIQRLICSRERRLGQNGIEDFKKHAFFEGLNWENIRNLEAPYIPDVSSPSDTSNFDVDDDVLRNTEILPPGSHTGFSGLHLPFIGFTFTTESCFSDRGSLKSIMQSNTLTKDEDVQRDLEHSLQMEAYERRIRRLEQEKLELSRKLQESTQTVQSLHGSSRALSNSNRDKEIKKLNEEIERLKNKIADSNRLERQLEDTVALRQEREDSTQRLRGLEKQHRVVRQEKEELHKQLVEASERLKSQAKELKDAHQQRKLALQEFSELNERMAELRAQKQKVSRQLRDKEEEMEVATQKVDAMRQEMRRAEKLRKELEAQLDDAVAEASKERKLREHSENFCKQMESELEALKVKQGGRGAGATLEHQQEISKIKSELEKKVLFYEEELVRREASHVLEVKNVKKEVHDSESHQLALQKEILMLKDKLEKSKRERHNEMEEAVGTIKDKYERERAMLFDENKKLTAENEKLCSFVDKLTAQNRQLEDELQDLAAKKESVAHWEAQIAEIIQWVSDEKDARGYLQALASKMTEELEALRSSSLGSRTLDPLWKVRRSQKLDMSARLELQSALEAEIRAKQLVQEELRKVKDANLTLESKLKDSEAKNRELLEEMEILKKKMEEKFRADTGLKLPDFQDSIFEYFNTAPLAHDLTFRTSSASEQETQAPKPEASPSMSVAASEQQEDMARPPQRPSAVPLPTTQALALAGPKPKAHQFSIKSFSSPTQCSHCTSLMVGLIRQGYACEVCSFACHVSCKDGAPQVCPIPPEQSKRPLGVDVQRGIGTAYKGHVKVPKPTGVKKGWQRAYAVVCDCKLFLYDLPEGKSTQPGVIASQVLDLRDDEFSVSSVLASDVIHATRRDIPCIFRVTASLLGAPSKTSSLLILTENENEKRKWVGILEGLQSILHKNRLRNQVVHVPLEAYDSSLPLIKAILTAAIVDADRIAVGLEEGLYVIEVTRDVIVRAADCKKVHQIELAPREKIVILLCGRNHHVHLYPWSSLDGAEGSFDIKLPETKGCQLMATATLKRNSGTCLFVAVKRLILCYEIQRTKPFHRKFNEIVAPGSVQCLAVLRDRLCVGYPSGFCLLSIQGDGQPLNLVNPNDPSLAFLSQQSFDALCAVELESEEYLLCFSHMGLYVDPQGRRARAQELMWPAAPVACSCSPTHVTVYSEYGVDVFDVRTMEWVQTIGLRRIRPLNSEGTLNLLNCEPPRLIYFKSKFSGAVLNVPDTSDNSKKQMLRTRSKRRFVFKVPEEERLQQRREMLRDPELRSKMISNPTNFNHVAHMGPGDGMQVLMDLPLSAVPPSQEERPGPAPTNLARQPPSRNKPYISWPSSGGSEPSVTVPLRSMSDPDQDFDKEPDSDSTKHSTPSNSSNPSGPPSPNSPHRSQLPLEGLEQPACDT

HCT-116 [21] = test: Antitumor immunity in BALB/c mouse xenografted with human HCT-116 cells assessed as necrotic Treg cells in spleen by propidium iodide staining based flow cytometry analysis (reference value: 1.47 %); assay type: functional
[22] = biological target: Serine/threonine-protein kinase BRSK1 (Homo sapiens) (UniProt Q8TDC3); test: Inhibition of BRSK1 (unknown origin) at 1 uM
[23] = biological target: Serine/threonine-protein kinase STK11 (Homo sapiens) (UniProt Q15831); test: Inhibition of LKB1 (unknown origin) at 1 uM
[24] = biological target: Serine/threonine-protein kinase Sgk3 (Homo sapiens) (UniProt Q96BR1); test: Inhibition of SGK3 (unknown origin) at 1 uM
[25] = biological target: Mitogen-activated protein kinase kinase kinase kinase 5 (Homo sapiens) (UniProt Q9Y4K4); test: Inhibition of KHS (unknown origin) at 1 uM
[26] = biological target: Serine/threonine-protein kinase 24 (Homo sapiens) (UniProt Q9Y6E0); test: Inhibition of MST3 (unknown origin) at 1 uM
[27] = biological target: Dual serine/threonine and tyrosine protein kinase (Homo sapiens) (UniProt Q6XUX3); test: Inhibition of RIPK5 (unknown origin) at 1 uM
[28] = biological target: PAS domain-containing serine/threonine-protein kinase (Homo sapiens) (UniProt Q96RG2); test: Inhibition of PASK (unknown origin) at 1 uM
[29] = biological target: STE20-like serine/threonine-protein kinase (Homo sapiens) (UniProt Q9H2G2); test: Inhibition of SLK (unknown origin) at 1 uM
[30] = Apparent permeability across basolateral to apical side in human Caco-2 cells; assay type: ADME, cell-based
[31] = biological target: Kinase suppressor of Ras 1 (Homo sapiens) (UniProt Q8IVT5); test: Inhibition of KSR1 (unknown origin) at 1 uM
[32] = biological target: Protein-tyrosine kinase 6 (Homo sapiens) (UniProt Q13882); test: Inhibition of BRK (unknown origin) at 1 uM
[33] = biological target: Serine/threonine-protein kinase WNK3 (Homo sapiens) (UniProt Q9BYP7); test: Inhibition of WNK3 (unknown origin) at 1 uM
Serine/threonine-protein kinase WNK3 (Homo sapiens), sequence (Q9BYP7 whole entry): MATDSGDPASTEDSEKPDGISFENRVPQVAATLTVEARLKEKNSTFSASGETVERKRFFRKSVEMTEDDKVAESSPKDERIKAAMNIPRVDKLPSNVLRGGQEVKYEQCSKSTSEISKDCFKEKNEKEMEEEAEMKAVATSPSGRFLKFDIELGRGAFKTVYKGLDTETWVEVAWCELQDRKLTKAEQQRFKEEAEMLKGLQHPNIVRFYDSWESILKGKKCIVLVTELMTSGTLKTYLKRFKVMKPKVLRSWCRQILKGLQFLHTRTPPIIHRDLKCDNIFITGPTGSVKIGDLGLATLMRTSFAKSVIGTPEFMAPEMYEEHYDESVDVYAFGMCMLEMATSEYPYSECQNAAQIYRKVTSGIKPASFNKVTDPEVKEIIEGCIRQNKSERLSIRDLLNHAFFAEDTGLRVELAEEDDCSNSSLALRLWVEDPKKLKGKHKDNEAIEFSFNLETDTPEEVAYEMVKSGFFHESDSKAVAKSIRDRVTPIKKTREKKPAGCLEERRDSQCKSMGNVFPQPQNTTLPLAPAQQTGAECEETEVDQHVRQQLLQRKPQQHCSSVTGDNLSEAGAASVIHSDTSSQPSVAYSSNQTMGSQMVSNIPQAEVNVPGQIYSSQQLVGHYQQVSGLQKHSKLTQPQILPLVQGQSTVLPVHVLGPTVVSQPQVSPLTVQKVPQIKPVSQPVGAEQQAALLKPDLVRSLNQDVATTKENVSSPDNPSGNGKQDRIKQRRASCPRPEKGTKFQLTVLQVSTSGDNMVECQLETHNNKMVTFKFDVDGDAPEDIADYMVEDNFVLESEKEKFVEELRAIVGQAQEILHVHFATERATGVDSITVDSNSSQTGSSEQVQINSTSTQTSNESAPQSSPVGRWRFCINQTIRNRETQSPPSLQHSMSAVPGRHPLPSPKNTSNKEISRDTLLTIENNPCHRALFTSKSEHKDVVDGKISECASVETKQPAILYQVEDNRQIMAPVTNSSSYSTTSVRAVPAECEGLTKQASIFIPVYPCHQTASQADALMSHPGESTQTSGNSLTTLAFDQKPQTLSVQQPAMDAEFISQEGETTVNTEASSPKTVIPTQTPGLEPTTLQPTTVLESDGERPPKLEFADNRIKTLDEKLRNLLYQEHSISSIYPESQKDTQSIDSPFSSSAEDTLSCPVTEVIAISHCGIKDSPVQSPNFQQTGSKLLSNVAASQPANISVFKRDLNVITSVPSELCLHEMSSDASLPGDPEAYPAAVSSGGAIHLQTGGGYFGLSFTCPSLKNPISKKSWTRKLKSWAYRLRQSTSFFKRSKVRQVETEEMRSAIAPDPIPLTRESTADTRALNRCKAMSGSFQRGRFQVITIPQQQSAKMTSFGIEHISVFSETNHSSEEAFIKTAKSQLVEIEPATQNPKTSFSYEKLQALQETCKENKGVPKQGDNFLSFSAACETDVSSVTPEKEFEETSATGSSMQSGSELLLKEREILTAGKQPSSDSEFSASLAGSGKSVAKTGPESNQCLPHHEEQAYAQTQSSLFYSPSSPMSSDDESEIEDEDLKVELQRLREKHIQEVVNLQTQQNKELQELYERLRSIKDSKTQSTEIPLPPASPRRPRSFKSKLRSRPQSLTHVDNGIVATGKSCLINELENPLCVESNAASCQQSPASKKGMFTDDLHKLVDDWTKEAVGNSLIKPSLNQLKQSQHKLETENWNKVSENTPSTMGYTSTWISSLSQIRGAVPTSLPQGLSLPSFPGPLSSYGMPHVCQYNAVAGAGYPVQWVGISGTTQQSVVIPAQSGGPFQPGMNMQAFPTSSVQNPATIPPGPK

[34] = biological target: SRSF protein kinase 2 (Homo sapiens) (UniProt P78362); test: Inhibition of SRPK2 (unknown origin) at 1 uM
[35] = biological target: Mast/stem cell growth factor receptor Kit (Homo sapiens) (UniProt P10721); test: Inhibition of c-KIT (unknown origin) at 1 uM
[36] = biological target: Death-associated protein kinase 1 (Homo sapiens) (UniProt P53355); test: Inhibition of DAPK1 (unknown origin) at 1 uM
[37] = biological target: Glycogen synthase kinase-3 alpha (Homo sapiens) (UniProt P49840); test: Inhibition of GSK3A (unknown origin) at 1 uM
[38] = biological target: Serine/threonine-protein kinase ICK (Homo sapiens) (UniProt Q9UPZ9); test: Inhibition of LCK2 (unknown origin) at 1 uM
[39] = biological target: Casein kinase II subunit alpha' (Homo sapiens) (UniProt P19784); test: Inhibition of CK2A2 (unknown origin) at 1 uM
[40] = biological target: Mitogen-activated protein kinase kinase kinase 10 (Homo sapiens) (UniProt Q02779); test: Inhibition of MLK2 (unknown origin) at 1 uM
[41] = biological target: Serine/threonine-protein kinase SBK1 (Homo sapiens) (UniProt Q52WX2); test: Inhibition of SBK1 (unknown origin) at 1 uM
[42] = AUC (0 to t) in Sprague-Dawley rat at 5 mg/kg, iv; assay type: ADME, organism-based; parameters: dose 5 mg/kg, route iv; details: in vivo
[43] = biological target: Cyclin-dependent kinase 5/CDK5 activator 1 (Homo sapiens) (UniProt Q00535+Q15078); test: Inhibition of CDK5/p35 (unknown origin) at 1 uM; assay type: protein-complex assay
[44] = biological target: Serine/threonine-protein kinase Nek8 (Homo sapiens) (UniProt Q86SG6); test: Inhibition of NEK8 (unknown origin) at 1 uM
[45] = biological target: Serine/threonine-protein kinase TAO1 (Homo sapiens) (UniProt Q7L7X3); test: Inhibition of TAOK1 (unknown origin) at 1 uM

For `OCCOCc1cn(CCNc2nonc2/C(=N/O)Nc2ccc(F)c(Br)c2)nn1`, the inhibition [1] was “inactive”, the inhibition [2] was “inactive” and the inhibition [3] was “inactive”. For the same compound, the IC50 [4] was over 30 µM, the inhibition [5] was “inactive” and the fraction unbound [6] was 0.0968. For the same compound, the inhibition [7] was “inactive”, the inhibition [8] was “inactive” and the inhibition [9] was “inactive”. The inhibition [10] was “inactive”, the inhibition [11] was “inactive” and the inhibition [12] was “inactive”. The inhibition [13] was “inactive”, the clearance [14] was 27.5 mL/min/kg and the inhibition [15] was “inactive”. The recovery [16] was 112%, the Activity (HCT-116 [17]) was 8.83% and the inhibition [18] was “inactive”. The inhibition [19] was “inactive”, the inhibition [20] was “inactive” and the Activity (HCT-116 [21]) was 0.78%. The inhibition [22] was “inactive”, the inhibition [23] was “inactive” and the inhibition [24] was “inactive”. For the same compound, the inhibition [25] was “inactive”, the inhibition [26] was “inactive” and the inhibition [27] was “inactive”. The inhibition [28] was “inactive”, the inhibition [29] was “inactive” and the Papp B→A [30] was 46 ×10⁻⁶ cm/s. The inhibition [31] was “inactive”, the inhibition [32] was “inactive” and the inhibition [33] was “inactive”. For the same compound, the inhibition [34] was “inactive”, the inhibition [35] was “inactive” and the inhibition [36] was “inactive”. For the same compound, the inhibition [37] was “inactive”, the inhibition [38] was “inactive” and the inhibition [39] was “inactive”. For the same compound, the inhibition [40] was “inactive”, the inhibition [41] was “inactive” and the AUC(0-t) [42] was 3040 ng·h/mL. For the same compound, the inhibition [43] was “inactive”, the inhibition [44] was “inactive” and the inhibition [45] was “inactive”.
